# Data published in US12304890B2, “R-type pyridyloxycarboxylic acid, salt and ester derivative thereof, and preparation method therefor, and herbicidal composition and application thereof” (Qingdao Kingagroot Chemical Compound Co., Ltd., priority 2018, dated 2025).
# Legend:
# Assay type in all cases: in vivo
# Echinochloa crusgalli = assay: Post-emergence test experiment, Echinochloa crusgalli; details: 1000 g a.i./ha, 3 weeks in greenhouse, fresh weight inhibition
# In short: (§1)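 Greenhouse-grown plants sprayed at the 2-3 leaf stage, 2 weeks after sowing, with compound in acetone/tween-80 diluted in water plus 1.5 L/ha methyl oleate emulsifiable concentrate as synergist. Effect scored 3 weeks later as fresh weight inhibition rate.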
# Digitaria sanguinalis = assay: Post-emergence test experiment, Digitaria sanguinalis; details: 1000 g a.i./ha, 3 weeks in greenhouse, fresh weight inhibition
# In short: as §1
# [1] = system: Monocotyledonous and dicotyledonous weed seeds and main crop seeds; assay: Post-emergence test experiment, other weeds and crops (Table 4, 1000 g a.i./ha); details: 3 weeks in greenhouse, fresh weight inhibition
# In short: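 Weed and crop seeds (wheat, corn, rice, soybean, cotton, oilseed, millet, sorghum) sown in soil pots in a greenhouse and sprayed at 2-3 leaf stage, 2 weeks after sowing. Compound in acetone/tween-80 with methyl oleate concentrate (1.5 L/ha) as synergist. Effect recorded as fresh-weight growth inhibition rate.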
compound,measurement,setting,value
CC(Oc1nc(F)c(Cl)c(N)c1Cl)C(=O)OCc1cccc(Br)c1 (stereo not drawn) [Compound 2-322],"Activity level (growth inhibition rate), Echinochloa crusgalli",Echinochloa crusgalli,5 (Level 5: the growth inhibition rate is greater than 85%)
same,"Activity level (growth inhibition rate), Digitaria sanguinalis",Digitaria sanguinalis,5 (Level 5: the growth inhibition rate is greater than 85%)
same,"Activity level (growth inhibition rate), Abutilon theophrasti Medic.",[1],5 (Level 5: the growth inhibition rate is greater than 85%)
same,"Activity level (growth inhibition rate), Galium aparine",[1],5 (Level 5: the growth inhibition rate is greater than 85%)
same,"Activity level (growth inhibition rate), Monochoria Vaginalis",[1],5 (Level 5: the growth inhibition rate is greater than 85%)
CC(Oc1nc(F)c(Cl)c(N)c1Cl)C(=O)SCc1cccc(Br)c1 (stereo not drawn) [Compound 2-323],"Activity level (growth inhibition rate), Echinochloa crusgalli",Echinochloa crusgalli,5 (Level 5: the growth inhibition rate is greater than 85%)
same,"Activity level (growth inhibition rate), Digitaria sanguinalis",Digitaria sanguinalis,5 (Level 5: the growth inhibition rate is greater than 85%)
same,"Activity level (growth inhibition rate), Abutilon theophrasti Medic.",[1],5 (Level 5: the growth inhibition rate is greater than 85%)
same,"Activity level (growth inhibition rate), Galium aparine",[1],5 (Level 5: the growth inhibition rate is greater than 85%)
same,"Activity level (growth inhibition rate), Monochoria Vaginalis",[1],5 (Level 5: the growth inhibition rate is greater than 85%)
CC(Oc1nc(F)c(Cl)c(N)c1Cl)C(=O)OCc1ccc(Br)cc1 (stereo not drawn) [Compound 2-324],"Activity level (growth inhibition rate), Echinochloa crusgalli",Echinochloa crusgalli,5 (Level 5: the growth inhibition rate is greater than 85%)
same,"Activity level (growth inhibition rate), Digitaria sanguinalis",Digitaria sanguinalis,5 (Level 5: the growth inhibition rate is greater than 85%)
same,"Activity level (growth inhibition rate), Abutilon theophrasti Medic.",[1],5 (Level 5: the growth inhibition rate is greater than 85%)
same,"Activity level (growth inhibition rate), Galium aparine",[1],5 (Level 5: the growth inhibition rate is greater than 85%)
same,"Activity level (growth inhibition rate), Monochoria Vaginalis",[1],5 (Level 5: the growth inhibition rate is greater than 85%)
CC(Oc1nc(F)c(Cl)c(N)c1Cl)C(=O)SCc1ccc(Br)cc1 (stereo not drawn) [Compound 2-325],"Activity level (growth inhibition rate), Echinochloa crusgalli",Echinochloa crusgalli,5 (Level 5: the growth inhibition rate is greater than 85%)
same,"Activity level (growth inhibition rate), Digitaria sanguinalis",Digitaria sanguinalis,5 (Level 5: the growth inhibition rate is greater than 85%)
same,"Activity level (growth inhibition rate), Abutilon theophrasti Medic.",[1],5 (Level 5: the growth inhibition rate is greater than 85%)
same,"Activity level (growth inhibition rate), Galium aparine",[1],5 (Level 5: the growth inhibition rate is greater than 85%)
same,"Activity level (growth inhibition rate), Monochoria Vaginalis",[1],5 (Level 5: the growth inhibition rate is greater than 85%)
CC(Oc1nc(F)c(Cl)c(N)c1Cl)C(=O)OCc1ccccc1C(F)(F)F (stereo not drawn) [Compound 2-327],"Activity level (growth inhibition rate), Echinochloa crusgalli",Echinochloa crusgalli,5 (Level 5: the growth inhibition rate is greater than 85%)
same,"Activity level (growth inhibition rate), Digitaria sanguinalis",Digitaria sanguinalis,5 (Level 5: the growth inhibition rate is greater than 85%)
same,"Activity level (growth inhibition rate), Abutilon theophrasti Medic.",[1],5 (Level 5: the growth inhibition rate is greater than 85%)
same,"Activity level (growth inhibition rate), Galium aparine",[1],5 (Level 5: the growth inhibition rate is greater than 85%)
same,"Activity level (growth inhibition rate), Monochoria Vaginalis",[1],5 (Level 5: the growth inhibition rate is greater than 85%)
CC(Oc1nc(F)c(Cl)c(N)c1Cl)C(=O)SCc1ccccc1C(F)(F)F (stereo not drawn) [Compound 2-328],"Activity level (growth inhibition rate), Echinochloa crusgalli",Echinochloa crusgalli,5 (Level 5: the growth inhibition rate is greater than 85%)
same,"Activity level (growth inhibition rate), Digitaria sanguinalis",Digitaria sanguinalis,5 (Level 5: the growth inhibition rate is greater than 85%)
same,"Activity level (growth inhibition rate), Abutilon theophrasti Medic.",[1],5 (Level 5: the growth inhibition rate is greater than 85%)
same,"Activity level (growth inhibition rate), Galium aparine",[1],5 (Level 5: the growth inhibition rate is greater than 85%)
same,"Activity level (growth inhibition rate), Monochoria Vaginalis",[1],5 (Level 5: the growth inhibition rate is greater than 85%)
CC(Oc1nc(F)c(Cl)c(N)c1Cl)C(=O)OCc1cccc(C(F)(F)F)c1 (stereo not drawn) [Compound 2-329],"Activity level (growth inhibition rate), Echinochloa crusgalli",Echinochloa crusgalli,5 (Level 5: the growth inhibition rate is greater than 85%)
same,"Activity level (growth inhibition rate), Digitaria sanguinalis",Digitaria sanguinalis,5 (Level 5: the growth inhibition rate is greater than 85%)
same,"Activity level (growth inhibition rate), Abutilon theophrasti Medic.",[1],5 (Level 5: the growth inhibition rate is greater than 85%)
same,"Activity level (growth inhibition rate), Galium aparine",[1],5 (Level 5: the growth inhibition rate is greater than 85%)
same,"Activity level (growth inhibition rate), Monochoria Vaginalis",[1],5 (Level 5: the growth inhibition rate is greater than 85%)
CC(Oc1nc(F)c(Cl)c(N)c1Cl)C(=O)SCc1cccc(C(F)(F)F)c1 (stereo not drawn) [Compound 2-330],"Activity level (growth inhibition rate), Echinochloa crusgalli",Echinochloa crusgalli,5 (Level 5: the growth inhibition rate is greater than 85%)
same,"Activity level (growth inhibition rate), Digitaria sanguinalis",Digitaria sanguinalis,5 (Level 5: the growth inhibition rate is greater than 85%)
same,"Activity level (growth inhibition rate), Abutilon theophrasti Medic.",[1],5 (Level 5: the growth inhibition rate is greater than 85%)
same,"Activity level (growth inhibition rate), Galium aparine",[1],5 (Level 5: the growth inhibition rate is greater than 85%)
same,"Activity level (growth inhibition rate), Monochoria Vaginalis",[1],5 (Level 5: the growth inhibition rate is greater than 85%)
CC(Oc1nc(F)c(Cl)c(N)c1Cl)C(=O)OCc1ccc(C(F)(F)F)cc1 (stereo not drawn) [Compound 2-331],"Activity level (growth inhibition rate), Echinochloa crusgalli",Echinochloa crusgalli,5 (Level 5: the growth inhibition rate is greater than 85%)
same,"Activity level (growth inhibition rate), Digitaria sanguinalis",Digitaria sanguinalis,5 (Level 5: the growth inhibition rate is greater than 85%)
same,"Activity level (growth inhibition rate), Abutilon theophrasti Medic.",[1],5 (Level 5: the growth inhibition rate is greater than 85%)
same,"Activity level (growth inhibition rate), Galium aparine",[1],5 (Level 5: the growth inhibition rate is greater than 85%)
same,"Activity level (growth inhibition rate), Monochoria Vaginalis",[1],5 (Level 5: the growth inhibition rate is greater than 85%)
C[C@@H](Oc1nc(F)c(Cl)c(N)c1Cl)C(=O)SCc1ccc(C(F)(F)F)cc1 [Compound 2-332],"Activity level (growth inhibition rate), Echinochloa crusgalli",Echinochloa crusgalli,5 (Level 5: the growth inhibition rate is greater than 85%)
same,"Activity level (growth inhibition rate), Digitaria sanguinalis",Digitaria sanguinalis,5 (Level 5: the growth inhibition rate is greater than 85%)
same,"Activity level (growth inhibition rate), Abutilon theophrasti Medic.",[1],5 (Level 5: the growth inhibition rate is greater than 85%)
same,"Activity level (growth inhibition rate), Galium aparine",[1],5 (Level 5: the growth inhibition rate is greater than 85%)
same,"Activity level (growth inhibition rate), Monochoria Vaginalis",[1],5 (Level 5: the growth inhibition rate is greater than 85%)
C[C@@H](Oc1nc(F)c(Cl)c(N)c1Cl)C(=O)OCc1ccccc1C#N [Compound 2-333],"Activity level (growth inhibition rate), Echinochloa crusgalli",Echinochloa crusgalli,5 (Level 5: the growth inhibition rate is greater than 85%)
same,"Activity level (growth inhibition rate), Digitaria sanguinalis",Digitaria sanguinalis,5 (Level 5: the growth inhibition rate is greater than 85%)
same,"Activity level (growth inhibition rate), Abutilon theophrasti Medic.",[1],5 (Level 5: the growth inhibition rate is greater than 85%)
same,"Activity level (growth inhibition rate), Galium aparine",[1],5 (Level 5: the growth inhibition rate is greater than 85%)
same,"Activity level (growth inhibition rate), Monochoria Vaginalis",[1],5 (Level 5: the growth inhibition rate is greater than 85%)
C[C@@H](Oc1nc(F)c(Cl)c(N)c1Cl)C(=O)SCc1ccccc1C#N [Compound 2-334],"Activity level (growth inhibition rate), Echinochloa crusgalli",Echinochloa crusgalli,5 (Level 5: the growth inhibition rate is greater than 85%)
same,"Activity level (growth inhibition rate), Digitaria sanguinalis",Digitaria sanguinalis,5 (Level 5: the growth inhibition rate is greater than 85%)
same,"Activity level (growth inhibition rate), Abutilon theophrasti Medic.",[1],5 (Level 5: the growth inhibition rate is greater than 85%)
same,"Activity level (growth inhibition rate), Galium aparine",[1],5 (Level 5: the growth inhibition rate is greater than 85%)
same,"Activity level (growth inhibition rate), Monochoria Vaginalis",[1],5 (Level 5: the growth inhibition rate is greater than 85%)
